In patent publication US20240034761A1, “REGENERATION OF MAMMALIAN TISSUES USING SYNTHETIC IMMODULINS” (priority 2022, published 2024):
Marks after values point to notes of the source that are not given here. Peptide text beside a SMILES is read from it.

Key:
[1] = tested on: THP1-Dual monocyte reporter cell line; experiment: Adjuvant effect of helper molecules on immX3 peptide potency in THP1-Dual assay; format: cell-based, human; conditions: immX3 peptide 330 nM, no helper (buffer)
Experimental: (§1) Mammalian cell differentiation assays employed the THP1-Dual monocyte reporter cell line (Invivogen Inc, San Diego, CA) seeded at 2×10e5 cells per well in 96-well plates and cultured at 37 degrees C. in RPMI-1640 growth medium plus 10% fetal bovine serum and 1% penicillin/streptomycin. Cells were subsequently treated for 24 hours with 100 ng/ml Phorbol 12-myristate 13-acetate (PMA protocol; Cayman Chemical Company, Ann Arbor, MI). Peptide (0.33 uM or 0.66 uM, as indicated) was then added, and incubation continued for an additional 24 hours. Culture supernatants were assayed for CCL22. Plates with adherent cells were washed with PBS and assayed for immunoreactivity of surface markers such as CD169, Clec9a or Clec12a using fuorescent tag- or biotin-labeled anti-human antibodies purchased from Miltenyi Biotec (Auburn, CA) and the secondary detection reagent recommended by the manufacturer.
The THP1-Dual cell differentiation assay was carried out as described above in Example 2, using immX3 peptide (330 nM) in all samples plus the indicated helper or inhibitor molecule. Molecules were purched from Cayman Chemical Company (Ann Arbor, MI) or Sigma Chemical Company (St. Louis, MO). AU=arbitrary ELISA units. **p<0.01.

[2] = Second binding experiment: FITC-HMW-HA binding with holotransferrin, pH and cold competitors; design: key to FITC-HMW-HA binding, +cold LMW-HA / FITC-HMW-HA binding, +cold HMW-HA: fluorescence counts normalized to peptide binding control = 100; conditions: holotransferrin 10 ug/well; for FITC-HMW-HA binding, +cold HMW-HA: HMW-HA 10 ug/well; for FITC-HMW-HA binding, +cold LMW-HA: LMW-HA hexamer 10 ug/well; for FITC-HMW-HA binding, +cold PIP2: excess PIP2 500 ng/well
Experimental: Effects of pH, PIP2 and size classes: Streptavidin-coated 96-well plates (G-Biosciences, St. Louis, MO) were pre-loaded with biotinylated peptides [see Example 1] at 400 ng/well, at room temperature for 60 minutes. The plate was washed with PBS buffer and then 1 ug FITC-labelled heparin or hyaluronic acid (FITC-HMW-HA) in 100 uL PBS buffer was added per well (all tests done in quadruplicate). Incubation proceeded for 90 minutes at room temperature, followed by two PBS washes. The plate was read in a standard laboratory fluorometer (488/525 nm exitation/[…]) and the counts normalized for immX3 peptide binding=100. Values statistically above background are shown in bold font. **p<0.05 versus immX3AVD.
A second binding experiment was done as above, but using either 6 mM sodium phosphate buffer pH 7.4 or sodium citrate buffer pH 5.2 in the presence of FITC-HMW-HA (1.5 ug/well), holotransferrin (10 ug/well) and excess PIP2 (500 ng/well), LMW-HA (hexamer; 10 ug/well) or HMW-HA (10 ug/well). **p<0.05 versus peptide binding control (=100);

[3] = tested on: Primary human T-cells pre-selected for recognizing GAD65 peptide antigen; experiment: GAD65-specific primary T-cell differentiation on peptide-treated THP1-Dual cells; format: cell-based; conditions: peptide 0.66 uM, GAD65 1 ug/ml
Experimental: as §1
Another non-myeloid lineage was also tested. Primary human T-cells pre-selected for recognizing GAD65 peptide antigen, and the peptide antigen itself were purchased from Cellero LLC (Memphis, TN). THP1-Dual cells were treated with both GAD65 peptide antigen (1 ug/ml) and immodulin peptide (0.66 uM) using the protocol described in Example 2. After completion of the myeloid cell differentiation step (24 hours), supernatants were collected and 100,000 primary T-cells were added to each well in RPMI-1640 medium (100 uL per well). Plates were incubated for an additional 96 hours and cell extracts were prepared using CellLytic-M reagent (Sigma Chemical Co., St Louis, MO). Supernatants were assayed for CCL22, IL-10 and TGFbeta, and cell extracts assayed for FoxP3, all by ELISA using reagents from R&D Systems, Minneapolis, MN. The results are shown in the table below (**p<0.05 vs immX3AVD, set to=100): […]

## CC(C)[C@H](NC(=O)[C@H](C)NC(=O)[C@H](Cc1c[nH]c2ccccc12)NC(=O)[C@H](CS)NC(=O)[C@H](Cc1ccccc1)NC(=O)CNC(=O)[C@H](CCCNC(=N)N)NC(=O)[C@H](CCCCN)NC(=O)[C@H](CCCNC(=N)N)NC(=O)CNC(=O)[C@H](CCCCN)NC(=O)[C@H](CO)NC(=O)[C@@H]1CCCN1C(=O)[C@H](CCCNC(=N)N)NC(=O)[C@H](CS)NC(=O)[C@H](CCC(N)=O)NC(=O)[C@H](CCCCN)NC(=O)[C@H](CCCCN)NC(=O)[C@H](CCCCN)NC(=O)[C@H](Cc1ccc(O)cc1)NC(=O)[C@H](Cc1ccccc1)NC(=O)CNC(=O)[C@H](CCCCN)NC(=O)[C@@H](N)CCCCN)C(=O)N[C@@H](CC(=O)O)C(=O)O [immX3AVD] (H-KKGFYKKKQCRPSKGRKRGFCWAVD-OH)
[1]
  CD169 (AU): 100.0 ± 4.9 AU
[2]; pH 5.2
  FITC-HMW-HA binding, CONTROL: 140.0 ± 16.7**
  FITC-HMW-HA binding, +cold HMW-HA: 12.5 ± 7.1**
  FITC-HMW-HA binding, +cold LMW-HA: 100.6 ± 15.9
  FITC-HMW-HA binding, +cold PIP2: 92.2 ± 29.4
[2]; pH 7.4
  FITC-HMW-HA binding, +cold HMW-HA: 18.5 ± 3.7**
  FITC-HMW-HA binding, +cold LMW-HA: 92.6 ± 11.8**
  FITC-HMW-HA binding, +cold PIP2: 10.4 ± 8.2**
[2]; pH 7.4, peptide binding control = 100
  FITC-HMW-HA binding, CONTROL: 100.0 ± 8.3
[3]; cell extracts, immX3AVD = 100
  FoxP3 (AU): 100.0 ± 20.5 AU
[3]; supernatant
  CCL22: 88.8 ± 13.6 pg/mL
  IL-10: 1331 ± 94.3 pg/mL
  TGFb: 131.4 ± 41.4 pg/mL
